Experimental data published in a melting point compilation (Tetko et al.; mined from patent text by program, amines drawn as free bases though some values may be those of a salt).
Residues, ends and D or L forms follow the SMILES beside them. *: point of attachment. Boc = CC(C)(C)OC(=O)*; OBn = c1ccc(CO*)cc1; βAla = NCCC(=O)O

| SMILES | melting point |
| --- | --- |
| CCOC(=O)C(CCCCCc1ccc(Cl)cc1)C(N)=O (stereo unspecified) | 110 to 111 °C |
| CC(O)Cn1c(COCc2ccccc2)nc(C(C)C)c1Sc1cc(Cl)cc(Cl)c1 (stereo unspecified) | 155 to 157 °C |
| CCCCCCCCCCCN=C=S | 71 to 72 °C |
| CCOC(=O)c1cc(Cl)c(N)c2c1OCCO2 | 105 to 106 °C |
| Cc1ccc(S(=O)(=O)N2[C@@H](c3nc(C)no3)CC[C@H]2c2ccc(F)cc2)cc1 (racemic) | 128 °C |
| Cc1cc(O)cc(Br)c1C | 98 to 99 °C |
| Cc1c(Br)sc2ccc(Br)cc12 | 118 to 122 °C |
| Cc1ncc2c(n1)-c1ccccc1C2(Cc1ccnc(F)c1)Cc1ccnc(F)c1 | 114 to 115 °C |
| CNCCN(C)C(=O)[C@@H]1CCCN1S(=O)(=O)c1ccc(Cl)c(COc2cccc3c(-n4ccnc4)cc(C)nc23)c1Cl | 116 °C |
| CC(CS)C(=O)N(CC(=O)O)c1ccccc1 (stereo unspecified) | 168 to 170 °C |
| COc1cccc(C(=O)C=Cc2ccc(OC)cc2OC)c1 | 75.6 to 78.9 °C |
| O=c1nc(N(CCO)c2ccccc2)sc2ncccc12 | 168 to 169 °C |
| Cc1ccc(CC(N)=O)c(C)c1OC(F)F | 136 to 137 °C |
| CC1(C)CN2C(=NS(=O)C2=Nc2ccc(Cl)cc2)S1 (stereo unspecified) | 121 to 124 °C |
| S=C(NCc1cccnc1)NC(Cc1cccc2ccccc12)=Nc1ccccc1 | 162 to 163 °C |
| CCOC(=O)CN1C(=O)CN2CC(=O)NN=C21 | 188 to 193 °C |
| Cn1ncc(-c2ccc(O)cc2)cc1=O | 296 to 298 °C |
| COC(=O)CCCC(C)(C)c1ccc(C(=O)c2ccccc2C(=O)O)cc1 | 138 to 140 °C |
| CCOC(=O)N1CCN(c2nnc(N)[nH]2)CC1 | 196 to 198 °C |
| CCCOc1ccc(CO)cc1N | 94 to 95 °C |
| Nc1nc2ccccc2c2c1ncn2CCNC(=O)CCCCC1SCC2NC(=O)NC21 (stereo unspecified) | 169 °C |
| COc1ccc(N2CCN(c3c(C)c(C)c4c(c3C)C(N3CCOCC3)C(C)(C)O4)CC2)cc1 (stereo unspecified) | 181 to 182 °C |

| SMILES | melting point |
| --- | --- |
| Cc1nc2nccc(-c3cccc(C(F)(F)F)c3)n2n1 | 153 to 154 °C |
| COc1ccc(-c2cc3c(Nc4cccc(Cl)c4)ncnc3[nH]2)cc1 | 294 to 295 °C |
| CN1CCC(=C2c3ccccc3C=Cc3ccc(C(=O)OCn4ccnc4)cc32)CC1 | 118 to 121 °C |
| CN1CCc2c([nH]c3ccc(NS(=O)(=O)c4ccc(N)cc4)cc23)C1 | 236 to 237 °C |
| O=C1Cc2c3c(cc4ccccc24)N(c2ccccc2)C(=O)CN13 | 296 to 300 °C |
| CCCCC1(C#N)C2CC3CC(C2)CC1C3 (stereo unspecified) | 48 to 50 °C |
| CCn1c(=O)n(/C(C)=C\SC)c2ccccc21 | 74 °C |
| COC(=O)c1sc(Cl)cc1N | 99 to 101 °C |
| N#CC(Cc1ccccc1)=NNc1ccc(C(O)(C(F)(F)F)C(F)(F)F)cc1 | 164 to 167 °C |
| COc1cccc(OC)c1C(=O)Nc1nnc(C(C)(C)CSC)s1 | 165 to 167 °C |
| COc1cc2nc(SCc3ccccc3)nn2c(Cl)n1 | 140 to 141 °C |
| CCN1CCN([C@@H]2c3cc(C#N)ccc3OC(C)(C)[C@H]2O)C1=NC#N (relative stereo) | 231 to 233 °C |
| Cc1ccc2c(c1)[nH]c(=O)n2CCCN1CCN(C(c2ccccc2)c2ccccc2)CC1 | 178 °C |
| CNCCN(C)C(=O)OC(Cc1ccccc1)C(=O)N(C)C(Cc1c[nH]cn1)C(=O)NC(CC1CCCCC1)C(O)CCC(C)C (stereo unspecified) | 65 to 68 °C |
| CCCCOc1c(CNC(=O)OC(C)(C)C)n(CC(C)C)c(=O)c2ccc(-c3noc(C)n3)cc12 | 152 °C |
| Cc1c(Cl)cc(C2=NNC(=O)CC2O)cc1Cl (stereo unspecified) | 253 to 256 °C |
| CC(CN1C(=O)C2(COc3cc4c(cc32)CCO4)c2ccccc21)OCOCc1ccccc1 (stereo unspecified) | 49 to 52 °C |
| C=C[C@H](O)[C@@H](N)CC1CCCCC1 | 59 to 61 °C |
| CCOC(=O)C(CO)NC(=O)C(CC(=O)OCc1ccccc1)NC(=O)CCNC(=O)OC(C)(C)C (stereo unspecified) ({Boc-βAla}-Asp(OBn)-Ser-OEt; configuration not given here) | 132 to 134 °C |
| O=C(O)CCCOc1ccc2cc(-c3ccc4ccc(Cl)cc4n3)oc2c1 | 200 to 201 °C |
| CCCCCCCCCCCCCCCCCCCCC(=O)Nc1ccn(C2OC(CO)C(O)C2O)c(=O)n1 (stereo unspecified) | 139 to 142 °C |
| CC(C)(C)NCC(O)c1ccc(N)c(C#N)c1 (stereo unspecified) | 181 to 185 °C |

| SMILES | melting point |
| --- | --- |
| CC(=O)NC[C@H]1CN(c2ccc(C3CCOCC3)c(F)c2)C(=O)O1 | 191 to 192 °C |
| COC(=O)CCCCCOc1ccc(N=C=O)cc1 | 47 to 50 °C |
| COCC1=C(C)C(=O)C(OC)=C(OC)C1=O | 31 to 36 °C |
| CCCCCCCCOc1ccc(-c2cnc(-c3ccc(O)cc3)nc2)cc1 | 137 °C |
| CC(Cc1ccc(O)cc1)N(CC(=O)c1ccccc1)Cc1ccc(OCc2ccccc2)c([N+](=O)[O-])c1 (stereo unspecified) | 84 to 85 °C |
| CCOC(=O)N1CCc2c(sc3nc(-c4ccc(F)cc4)cn23)C1 | 164 to 166 °C |
| Nc1nc(-c2ccnc(-c3ccc(C(=O)NC4CCOCC4)cc3)c2)c(-c2ccccn2)s1 | 268 °C |
| CCc1noc(-c2ncn(-c3cccc(OCc4ccccc4)c3)c2COC)n1 | 63 to 64 °C |
| CCN(CC)CCNC(=O)c1cc(N(C)S(C)(=O)=O)ccc1OC | 48 to 50 °C |
| CCOC(=O)C(O)=Cc1nccc(OCc2ccccc2)n1 | 124 to 126 °C |
| CN(C)S(=O)(=O)N(C)c1cccc2cc(-c3nccs3)[nH]c12 | 123 °C |
| O=C(CCC(C(=O)O)N1C(=O)c2cccc(NCc3ccco3)c2C1=O)Nc1ccccc1 (stereo unspecified) | 146 to 148 °C |
| CS(=O)(=O)Cc1c(C(=O)NN2CCCCC2)nn(-c2ccc(Cl)cc2Cl)c1-c1ccc(Cl)cc1 | 171 °C |
| O=[N+]([O-])c1ccc(Oc2ccc(C(F)(F)F)cc2Cl)cc1[N+](=O)[O-] | 80 to 81 °C |
| CCCN1CCC23c4cccc(O)c4OC2C2CCC3(C1)C(COC)C2 (stereo unspecified) | 130 to 131 °C |
| COC(=O)c1ncsc1S(=O)(=O)Cl | 94 to 97.5 °C |
| COC(=O)[C@@H](NS(=O)(=O)c1ccc(Br)cc1)C(C)C | 88 to 90 °C |
| CCOC(=O)c1cc(NCc2ccccc2)c(Nc2ccccc2)c(S(=O)(=O)Nc2ccccc2)c1 | 166 to 167 °C |
| CCOC(=O)C1=C(N)N=C(OCC)C(C(=O)OCC)C1c1ccc(SC)cc1 (stereo unspecified) | 132 °C |
| C=Cc1cc(CCNc2ncnc3c(F)ccc(F)c23)ccc1Oc1cc(C(F)(F)F)ccn1 | 86 °C |
| COCCCc1ccc(C#CC2(O)CN3CCC2CC3)cc1 (stereo unspecified) | 145 °C |
| CC(c1c[nH]cn1)c1cccc(C(=N)N)c1O (stereo unspecified) | 191 °C |

The next lines start with the values.

| melting point | SMILES |
| --- | --- |
| 146 to 148 °C | COc1cc(OC)nc(C2(Cl)OC(=O)c3ncccc32)n1 (stereo unspecified) |
| 74 to 76 °C | CCCc1c(S(=O)CCCOc2ccc(C(C)=O)c(OCCCC(=O)OCC)c2CCC)ccc(C(C)=O)c1O (stereo unspecified) |
| 111 to 112 °C | COc1cc(N2CCC(N3CCOCC3)CC2)ccc1Nc1ncc2ccc(-c3ccccc3S(C)(=O)=O)n2n1 |
| 122 to 124 °C | CCCCc1nc(Cl)c(C=O)n1Cc1ccc2oc(-c3ccccc3-c3nnn[nH]3)c(Br)c2c1 |
| 73 to 74 °C | CC(C)(C)n1nnc(Cc2ccc(CBr)cc2)n1 |
| 235 to 237 °C | CC(C)(C)OC(=O)NCC12CN(c3cc4c(cc3F)c(=O)c(C(=O)O)cn4C3CC3)CC1CCO2 (stereo unspecified) |
| 91 to 96 °C | COc1ccccc1Cn1c(=O)c2c(N3CCN(C)CC3)cc(Cl)cc2n(Cc2ccccc2)c1=O |
| 92 to 95 °C | CS(=O)(=O)c1ccc(C(CC2CCCC2)C(=O)Nc2ccccn2)cc1[N+](=O)[O-] (stereo unspecified) |
| 102 to 104 °C | c1ccc2c(Cn3cncn3)noc2c1 |
| 94 to 96 °C | CCOC(=O)C(O)=Cc1ccc(Cc2ccc(F)cc2)cn1 |
| 100 to 103 °C | O=C(O)Cc1cc(C(=O)c2ccc(I)c([N+](=O)[O-])c2)sc1-c1ccccc1 |
| 146 to 148 °C | Nc1ccc2c(c1)nc(/C=C/c1ccccc1)n2-c1ccccn1 |
| 223 °C | CCCn1c(-c2ccccc2)nc2cc(C(=O)O)ccc21 |
| 105 to 107 °C | CCCCCCCCCCCCc1ccc(C(OC(C)=O)C(COC(C)=O)NC(C)=O)s1 (stereo unspecified) |
| 108 to 110 °C | CC(C)(C)NC(=O)c1ccccc1NS(=O)(=O)C(F)(F)F |
| 235 °C | O=C(O)COc1ccc(-c2nc3cnccc3[nH]2)c(O)c1 |
| 99.8 °C | CCCCOc1nc2ccnn2c2ncccc12 |
| 145 to 147 °C | CCn1c(CC#N)ccc1C(=O)c1ccc(Cl)cc1 |

| melting point | SMILES |
| --- | --- |
| 45.7 °C | CC1(C)C(C=C2C(C(F)(F)F)C2(F)F)C1C(=O)O (stereo unspecified) |
| 173 to 175 °C | COc1cc(Cl)c(N)cc1-c1nc(C)c(-c2cccnc2)[nH]1 |
| 101 to 102 °C | CC(C(=O)O)c1ccc(I)cc1 (stereo unspecified) |
| 163 to 170 °C | CCc1nc2cc(S(N)(=O)=O)c(Cl)cc2n1-c1ccc(CCNC(=O)NS(=O)(=O)c2ccc(C)cc2)cc1 |
| 165 to 167 °C | O=C(O)c1cc(S(=O)(=O)CCO)ccc1[N+](=O)[O-] |
| 173 to 177 °C | CCOCc1cnc2c(NC(=O)c3c(Cl)cccc3Cl)cccc2c1N1CCN(C)C1=O |
| 130 to 131 °C | CC(C)(C)OC(=O)NC[C@H]1CC[C@H](NC(=O)OCc2ccccc2)CC1 |
| 89 to 91 °C | Cn1ccc(Nc2n[nH]c3c(OCCc4ccccn4)cc(-c4ncccc4Cl)cc23)n1 |
| 142 to 145 °C | COC(=O)c1c(-c2nccn2C)c2cnc(N3CCC[C@H]3CO)nc2n(Cc2ccc(OC)c(Cl)c2)c1=O |
| 149 to 150 °C | O=C(NC1CCOCC1)c1cnccc1C(F)(F)F |
| 220 to 221 °C | N#Cc1ncn2c1COC(=O)c1ccccc1-2 |
| 70 to 72 °C | CCOC(=O)c1ccc(S(C)(=O)=O)nc1C(F)(F)F |
| 138 to 142 °C | NNC(=O)C(F)(F)C(F)(F)C(F)(F)F |
| 272 to 274 °C | O=c1c2c(CCC(F)(F)F)n[nH]c2c2cccnc2n1-c1ccccc1 |
| 85.2 to 88.1 °C | CC(=O)c1c(C)nn2ccccc12 |
| 213 °C | N#CC(=Cc1ccc[nH]1)C(=O)O |
| 163 to 168 °C | COc1ccc(-c2cc(=Nc3c(C)cc(C)cc3C)n(C)c(C)n2)cc1OC |
